Results reported in paper PMC12765074, “Mechanistic insights into enterocin C targeting the undecaprenyl phosphate recycling protein BacA” (The Journal of Biological Chemistry, 2025).
“Also recorded” adds a separate entry of the source.

Assays:
[1] = molecular target: N-terminal His6-tagged BacA from E. faecalis (BacAef) (Enterococcus faecalis); assay: cross-linking; DSS (100- or 1000-fold excess), peptides and BacA at equimolar 17 μM in buffer D (20 mM HEPES pH 7.5, 0.2 M NaCl, 10% glycerol, 0.1% DDM), 30 min at 4 °C, quenched with 50 mM Tris-HCl; SDS-PAGE and anti-His blot of BacA
[2] = molecular target: Fluorescein-labelled EntC1 (Enterococcus faecalis C901); assay: flow-induced dispersion analysis (FIDA); as the titration without EntC2, but in the presence of 200 nM EntC2 (twice the concentration of Fluo-EntC1); 25 °C; 20 mM Tris-HCl pH 7.4, 200 mM NaCl, 0.1% DDM; 1:1 binding model
[3] = molecular target: Fluorescein-labelled EntC1 (Enterococcus faecalis C901); assay: flow-induced dispersion analysis (FIDA)
[4] = molecular target: N-terminal His6-tagged BacA from E. faecalis (BacAef) (Enterococcus faecalis); assay: ITC; peptides (400 μM) in the syringe titrated into the protein, or the protein premixed with one peptide, (33 μM) in the cell; 20 °C; 20 mM Tris-HCl pH 7.4, 200 mM NaCl, 0.1% DDM; single binding site model
[5] = molecular target: N-terminal His6-tagged BacA from E. faecalis (BacAef) (Enterococcus faecalis); assay: ITC; EntC1 (400 μM) in the syringe titrated into a mixture containing BacAef and EntC2 (33 μM) in the cell; 20 °C; 20 mM Tris-HCl pH 7.4, 200 mM NaCl, 0.1% DDM
[6] = molecular target: N-terminal His6-tagged BacA from E. faecalis (BacAef) (Enterococcus faecalis)
[7] = molecular target: N-terminal His6-tagged BacA from E. faecalis (BacAef) (Enterococcus faecalis); remark: listed apart in the source
BacAef [8] = molecular target: T1, BacAef (Enterococcus faecalis, UniProt A0ACD6TE02); format: biochemical
BacAef [9] = molecular target: T1, BacAef; assay: DSS crosslinking; format: binding; details: BacAef and peptide 17 μM each, DSS 100- or 1000-fold excess, 30 min, 4 °C
Protocol: Crosslinking experiments were performed using the amine-reactive, membrane-permeable, and non-cleavable crosslinker disuccinimidyl suberate (DSS) purchased from Sigma. EntC peptides and BacA protein were mixed at equimolar concentrations (17 μM) in buffer D in the presence of an excess of DSS crosslinker (1000-fold or 100-fold) in a final reaction volume of 20 μl. The reaction was incubated for 30 min at 4°C, and any unreacted DSS was quenched with 50 mM Tris-HCl. After separation on a 12% acrylamide gel, proteins were electrotransferred onto polyvinylidene difluoride (PVDF) membrane, and BacA was detected using peroxidase-coupled anti-His tag antibody (Penta-His HRP conjugate from Qiagen, RRID: AB_3699318) by chemiluminescence detection (Western Lightning Plus-ECL, PerkinElmer) using the ChemiDoc MP system (Bio-Rad).

BacAef/EntC1 = BacAef/EntC1 (Enterococcus faecalis, UniProt A0ACD6TE02+Q9L9U6); assay: ITC, BacAef/EntC1 mixture; format: binding
Protocol: (§1) ITC experiments were performed with an ITC200 isothermal titration calorimeter from MicroCal (Malvern Panalytical, Malvern, UK). The experiments were carried out at 20 °C. The protein concentration in the microcalorimeter cell (0.2 ml) was 33 μM. Nineteen 2-μl injections of peptides at 400 μM were performed at intervals of 240 s while stirring at 500 rpm. To limit buffer mismatching effect between the cell and the syringe, and the heat-of-dilution effect for having glycerol in the protein solution, the latter were extensively dialyzed, prior to the ITC measurement, in a buffer containing 20 mM Tris-HCl pH 7.4, 200 mM NaCl, 0.1% DDM, to remove glycerol. Then, the dialysis buffer was used to dilute the EntC peptides to further limit buffer mismatching. The experimental data were fitted to theoretical titration curves with the software supplied by MicroCal (ORIGIN). This software uses the relationship between the heat generated by each injection and ΔH (enthalpy change in kcal/mol), Ka (the association binding constant in M^−1), n (the number of binding sites), total protein concentration and free and total ligand concentrations.

BacAef [10] = molecular target: T1, BacAef; assay: ITC, BacAef; format: binding; details: 20 °C; for -TΔS / ΔG / ΔH: into [BacAef] 33 μM
Protocol: as §1

[11] = test system: E. faecalis (V583-derivative strain, WT); format: cell-based, Enterococcus faecalis; details: 6 μl droplets on a lawn of E. faecalis, BHI 0.75% agar, overnight; representative of three independent experiments
BacAef [12] = molecular target: T1, BacAef; assay: UppS-coupled C55-PP phosphatase assay in liposomes, BacAef; format: biochemical; details: liposomes
Protocol: The reconstitution of BacA and PgpB in liposomes was achieved through adapted protocols previously described ([48]). Liposomes were prepared by rehydrating a lipid film of DOPC: DOPG: DOPE (3 mg: 0.75 mg: 1.25 mg) after 4 h of desiccation by adding 1 ml of buffer (20 mM HEPES, pH 7.5, 50 mM NaCl, 15% glycerol). […] The lipid suspension underwent 10 freeze-thaw cycles in liquid nitrogen and was extruded through a 100 nm polycarbonate membrane (Millipore). Protein reconstitution was performed by destabilizing the liposomes with 5.5 mM Triton X-100 for 15 min. The protein was added at a final concentration of 15 μg/ml and the mixture was incubated at 4 °C for 15 min.
The liposomes were used to measure the C55-PP phosphatase activity of BacA in a membrane environment as follows. For each kinetic assay, 5 μl of a reaction mixture containing 20 μM C15-PP, 20 μM [^14C]C5-PP, 180 μM C5-PP in 20 mM HEPES, pH 7.5, 50 mM NaCl, and 15% glycerol were mixed with 5 μl of protein-free liposomes (as a control) or BacA-containing liposomes. The mixture was then supplemented with UppS at a final concentration of 0.2 mg/ml to initiate the enzymatic synthesis of C55-PP. The EntC peptides were added at various concentrations from a water solution. […] Substrates and products were separated and quantified by thin-layer chromatography as previously described for C55-PP phosphatase assay in detergent.

BacAef/LcnGα = BacAef/LcnGα (Enterococcus faecalis, UniProt A0ACD6TE02); assay: ITC, BacAef/LcnGα mixture; format: binding; details: 20 °C
Protocol: as §1

BacAef [13] = molecular target: T1, BacAef; format: binding
Protocol: Thermal stability of BacA protein in different mixtures of peptides was performed by DSC on a MicroCal model VP-DSC (Malvern Panalytical, Malvern, UK). BacA (33 μM) was mixed with different mixtures of peptides at twice the BacA concentration (i.e. 66 μM). Each measurement was preceded by a baseline scan with the standard buffer. Scans were performed at 1 K/min (60 °C/h) temperature ramp between 30 °C and 100 °C. The heat capacity of the buffer was subtracted from that of the protein sample before analysis. The thermodynamic parameters were determined by fitting the data to the following equation: ΔCp(T)=Kd(T)ΔHcalΔHvH/[1+Kd(T)]^2RT^2 where Kd is the equilibrium constant for a two-state process, ΔHvH the enthalpy calculated based on a two-state process and ΔHcal the measured enthalpy.

[14] = molecular target: BacAef + LcnGα mixture (Enterococcus faecalis | Lactococcus lactis); assay: ITC; peptides (400 μM) in the syringe titrated into the protein, or the protein premixed with one peptide, (33 μM) in the cell; 20 °C; 20 mM Tris-HCl pH 7.4, 200 mM NaCl, 0.1% DDM; single binding site model
[15] = molecular target: N-terminal His6-tagged BacA from E. faecalis (BacAef) (Enterococcus faecalis); remark: listed apart in the source
L. lactis IL1403 = assay: spot-on-lawn antibacterial assay, L. lactis; format: cell-based, Lactococcus lactis; details: 6 μl droplets, L. lactis IL1403, M17G agar, overnight
L. lactis strains = details: ref [6], [7], [8], cited from earlier work
[16] = ITC, 20 °C, into [BacAef/EntC1]
[17] = ITC, peptides 400 μM into [BacAef] 33 μM, 20 mM Tris-HCl pH 7.4, 200 mM NaCl, 0.1% DDM, at least triplicate

## N-terminal His6-tagged BacA from E. faecalis (BacAef) (enzyme)
[1]
  stoichiometry N: 2
[2]
  Kd: 86 nM
[3]
  Kd: 96 nM

## Enterocin C peptide EntC1 (mature, synthetic)
[1]
  stoichiometry N: 1
[4]
  Kd: 306 nM
  dH: -5.4 kcal/mol
  stoichiometry N: 0.6
[5]
  Kd: 480 nM
  dH: -27.6 kcal/mol
  stoichiometry N: 0.69
[6]
  IC50 of inhibition of the C55-PP phosphatase activity of BacAef in DDM micelles: 800 nM
[7]
  DSC: Tm of BacAef (33 μM) with the peptide at 66 μM (66.3°C without peptide): 73 °C
  DSC: enthalpy of denaturation ΔH of BacAef (33 μM) with the peptide at 66 μM (26.7 kcal/mol without peptide): 45.3 kcal/mol

## O=C(O)CN(CCN(CC(=O)O)CC(=O)O)CC(=O)O [EDTA]
BacAef [8]
  effect on BacAef C55-PP phosphatase activity: inhibited its activity

## CC[C@H](C)[C@H](NC(=O)CNC(=O)[C@H](CCCCN)NC(=O)[C@H](C)NC(=O)[C@H](CC(C)C)NC(=O)CNC(=O)[C@H](C)NC(=O)[C@@H](NC(=O)[C@H](Cc1ccccc1)NC(=O)[C@H](CC(=O)O)NC(=O)[C@H](Cc1ccc(O)cc1)NC(=O)[C@H](C)NC(=O)[C@@H]1CCCN1C(=O)[C@H](CCC(N)=O)NC(=O)[C@H](CC(C)C)NC(=O)[C@H](Cc1c[nH]c2ccccc12)NC(=O)[C@@H]1CCCN1C(=O)[C@H](CC(C)C)NC(=O)[C@H](Cc1c[nH]c2ccccc12)NC(=O)[C@H](CCCCN)NC(=O)CNC(=O)[C@@H]1CCCN1C(=O)CN)C(C)C)C(=O)NCC(=O)N[C@@H](CCCCN)C(=O)N[C@@H](CCC(=O)O)C(=O)NCC(=O)N[C@@H](CC(N)=O)C(=O)N[C@@H](CCCCN)C(=O)N[C@@H](CC(N)=O)C(=O)N[C@@H](CCCCN)C(=O)N[C@@H](Cc1c[nH]c2ccccc12)C(=O)N[C@@H](CCCCN)C(=O)N[C@@H](CC(N)=O)C(=O)N[C@H](C(=O)O)C(C)C (single isomer, unassigned) [EntC2]
BacAef [9]
  crosslinked complex band with BacAef (SDS-PAGE, western blot): a very faint band
BacAef/EntC1; EntC2 into BacAef/EntC1 versus EntC1 into BacAef
  affinity of second binding event relative to EntC1 binding (fold): about 10 -fold
BacAef/EntC1; ITC, 20 °C, 400 μM into [BacAef/EntC1] 33 μM
  n: 0.95 ± 0.01
BacAef/EntC1; [16]
  -TΔS: 6.5 kcal/mol
  ΔG: -10.3 kcal/mol
  ΔH: -16.8 kcal/mol
BacAef [10]; ITC
  -TΔS: No binding
  ΔG: No binding
  ΔH: No binding
BacAef [10]; [17]
  KD: No binding
BacAef [10]; titration on BacAef alone
  binding to BacAef (ITC, words): No binding
[11]
  antibacterial activity (spot-on-lawn), E. faecalis: neither peptide exhibited antibacterial activity when applied individually
BacAef [12]
  effect on BacAef activity in liposomes: no effect
BacAef/LcnGα; 400 μM into [BacAef/LcnGα] 33 μM
  n: 0.77 ± 0.01
BacAef/LcnGα; into [BacAef/LcnGα]
  -TΔS: 10.5 kcal/mol
  ΔG: -9.0 kcal/mol
  ΔH: -19.5 kcal/mol
BacAef [13]; EntC2 at twice the concentration of BacAef
  DSC signal change of BacAef: did not change the DSC signal
BacAef [8]; DDM micelles, EntC2 up to 50 μM, pH 7.4, 37 °C, 10 min
  inhibition of BacAef C55-PP phosphatase activity: no inhibition

## Enterocin C peptide EntC2 (mature, synthetic)
[14]
  dH: -19.5 kcal/mol
  stoichiometry N: 0.77

## Lactococcin G (LcnGα and LcnGβ together) (complex)
[4]
  Kd: 165 nM
  dH: -20.4 kcal/mol
  stoichiometry N: 0.62
[15]
  IC50 of inhibition of the C55-PP phosphatase activity of BacAef in vitro: 800 nM

## EntC1-LcnGβ chimera bacteriocin (EntC1 and LcnGβ together) (complex)
[4]
  Kd: 307 nM
  dH: -19.4 kcal/mol
  stoichiometry N: 0.79

## Lactococcin G [LcnG, reference compound]
L. lactis IL1403
  antibacterial activity (spot-on-lawn), L. lactis: sensitivity to both bacteriocins
BacAef [10]; ITC
  -TΔS: 11.3 kcal/mol
  ΔG: -9.1 kcal/mol
  ΔH: -20.4 kcal/mol
BacAef [10]; [17]
  Kd: 165 ± 19 nM
BacAef [10]; ITC, peptides 400 μM into [BacAef] 33 μM, pH 7.4, 0.1% DDM, at least triplicate
  n: 0.62 ± 0.01
L. lactis strains; 1:1 ratio of LcnGα and LcnGβ
  membrane permeabilization: membrane permeabilization to monovalent cations
L. lactis strains
  antibacterial activity against L. lactis strains: antibacterial activity at nanomolar concentrations
[11]
  antibacterial activity (spot-on-lawn), E. faecalis: E. faecalis was only susceptible to EntC; also recorded: inactive against E. faecalis
BacAef [13]; LcnG versus EntC
  difference in Tm between EntC and LcnG complexes with BacAef: 6.8 °C
  difference in ΔH between EntC and LcnG complexes with BacAef: 7.8 kcal/mol
BacAef [8]; DDM micelles, 20 mM Tris-HCl pH 7.4, 400 μM CaCl2, 150 mM NaCl, 0.1% DDM, 50 μM [14C]C55-PP, 10 min, 37 °C, TLC, EntC vs EntC1 p-value = 0.0007, read-out: IC50, BacAef C55-PP phosphatase activity
  IC50: 800 nM

## [Ca+2].[Cl-].[Cl-] [CaCl2]
BacAef [8]; after 500 μM EDTA, pH 7.5, 0.1% DDM
  restoration of BacAef activity following EDTA treatment: restored
